This note sets out measurements from patent US7868013B2, “Cycloalkyl substituted pyrimidinediamine compounds and their uses” (Rigel Pharmaceuticals, Inc., priority 2004, dated 2011).

pIC50: −log10 of the molar value. Counter-ions that a name gives are not always drawn. Like-named read-outs stand apart in the source and are kept apart here.

In assay [1] the test system is H1299 (non-small cell lung carcinoma). The assay is described as follows: In vitro antiproliferation assay, H1299 cells (TABLE 1 6 point assay; TABLE 2). The class given is cell-based. As to the method: (§1) Certain compounds were tested against other cell types for their ability to inhibit proliferation in standard antiproliferation assays.
For another assay, the system named is A549 (lung carcinoma). The assay is described as follows: In vitro antiproliferation assay, A549 cells (TABLE 1 6 point assay; TABLE 2). The class given is cell-based. As to the method:
as §1

Setting [2] is: Homo sapiens, NCI-H1299, H1299 cells, 6 point assay, read-out: H1299, 6pt (IC50, inhibition of proliferation).
[3] abbreviates: Homo sapiens, A549, A549 cells, 6 point assay, read-out: A549, 6pt (IC50, inhibition of proliferation).
[4] abbreviates: Homo sapiens, NCI-H1299, 6 point assay, H1299 cells, read-out: IC50, H1299 cells.
[5] abbreviates: Homo sapiens, A549, 6 point assay, A549 cells, read-out: IC50, A549 cells.

With `Cc1ccc(Nc2ncc(F)c(NC3C4C=CC(C4)C3C(N)=O)n2)cc1OCCN1CCOCC1` (racemic) [compound 104, Racemic-(2-exo, 3-exo)-N4-(3-aminocarbonylbicyclo[2.2.1]hept-5-en-2-yl)-5-fluoro-N2-[4-methyl-3-(N-morpholinyl)-2-ethyleneoxyphenyl]-2,4-pyrimidinediamine], the pIC50 (in assay [1] (setting [2]); with A549 (lung carcinoma) (setting [3])) was not below 7.00 each time.
As for `Cc1cc(Nc2ncc(F)c(N[C@H]3CCC[C@@H]3C(N)=O)n2)ccc1N1CCN(C)CC1` [15d, (1S,2S)—N4-(2-Aminocarbonylcyclopent-1-yl)-5-fluoro-N2-[4-(4-methylpiperazin-1-yl)-3-methylphenyl]-2,4-pyrimidinediamine], the pIC50 (in assay [1] (setting [4]); with A549 (lung carcinoma) (setting [5])) was less than 5.00 each time.
As for `CCS(=O)(=O)N1CCN(c2ccc(Nc3ncc(F)c(N[C@H]4[C@@H](C(N)=O)[C@@H]5C=C[C@H]4C5)n3)cc2C)CC1` [compound 270, (1R,2R,3S,4S)-N4-(3-aminocarbonylbicyclo[2.2.1]hept-5-ene-2-yl)-N2-[3-methyl-4-(4-ethylsulfonylpiperazin-1-yl)phenyl]-5-fluoro-2,4-pyrimidinediamine Bis Hydrochloride Salt], the pIC50 in assay [1] (6 point assay, H1299 cells, Bis Hydrochloride Salt, read-out: IC50, H1299 cells) is 5.00 to 6.00; in the assay with A549 (lung carcinoma) (6 point assay, A549 cells, Bis Hydrochloride Salt, read-out: IC50, A549 cells), 5.00 to 6.00.
In the case of `Cc1cc(Nc2ncc(F)c(N[C@H]3[C@@H](C(N)=O)[C@@H]4C=C[C@H]3C4)n2)ccc1N1CCN(C)CC1` [compound 122, (1R,2R,3S,4S)-N4-(3-Aminocarbonylbicyclo[2.2.1]hept-5-en-2-yl)-5-fluoro-N2-[3-methyl-4-(4-methylpiperazin-1-yl)phenyl]-2,4-pyrimidinediamine Tartaric Acid Salt], the pIC50 (in assay [1] (setting [2]); in the assay with A549 (lung carcinoma) (setting [3])) was not below 7.00 in each case.
Regarding `Cc1cc(Nc2ncc(F)c(N[C@@H]3[C@H]4CC[C@H](C4)[C@@H]3C(=O)NC3CC3)n2)ccc1N1CCN(C)CC1` [compound 253, (1S,2R,3S,4R)-N4-(3-N-Cyclopropylaminocarbonylbicyclo[2.2.1]hept-2-yl)-5-fluoro-N2-[3-methyl-4-(4-methylpiperazin-1-yl)phenyl]-2,4-pyrimidinediamine], the pIC50 (in assay [1] (setting [4]); in the assay with A549 (lung carcinoma) (setting [5])) was 6.00 to 7.00 in each case.
On to `CN1CCC(Oc2cccc(Nc3ncc(F)c(N[C@H]4[C@@H](C(N)=O)[C@@H]5C=C[C@H]4C5)n3)c2)CC1` [compound 149, (1R,2R,3S,4S)-N4-(3-Aminocarbonylbicyclo[2.2.1]hept-5-en-2-yl)-5-fluoro-N2-[3-(1-methylpiperidin-4-yloxy)phenyl]-2,4-pyrimidinediamine], for which the pIC50 (in assay [1] (setting [2]); with A549 (lung carcinoma) (setting [3])) was not below 7.00 each time.
For the compound `COC(=O)[C@H]1CC[C@@H](Nc2nc(Nc3ccc(N4CCN(C)CC4)c(C)c3)ncc2F)C1` [compound 214, (1R,3S)-N4-(3-Methoxycarbonylcyclopent-1-yl)-5-fluoro-N2-[3-methyl-4-(4-methylpiperazin-1-yl)phenyl]-2,4-pyrimidinediamine], the pIC50 (in assay [1] (setting [4]); in the assay with A549 (lung carcinoma) (setting [5])) was 5.00 to 6.00 throughout.
Turning to `Cc1cc(Nc2ncc(F)c(N[C@H]3[C@@H](C(N)=O)[C@@H]4C=C[C@H]3C4)n2)ccc1N1CCN(C)CC1` [compound 121, (1R,2R,3S,4S)-N4-(3-Aminocarbonylbicyclo[2.2.1]hept-5-ene-2-yl)-5-fluoro-N2-[3-methyl-4-(4-methylpiperazin-1-yl)phenyl]-2,4-pyrimidinediamine Adipic Acid Salt], the pIC50 (in assay [1] (setting [2]); in the assay with A549 (lung carcinoma) (setting [3])) was not below 7.00 throughout.
As to `COC(=O)[C@@H]1CCC[C@@H]1Nc1nc(Nc2ccc(N3CCN(C)CC3)c(C)c2)ncc1F` (racemic) [compound 218, Racemic-cis-5-fluoro-N2-[3-methyl-4-(4-methylpiperazin-1-yl)phenyl]-N4-(2-methoxycarbonylcyclopent-1-yl)-2,4-pyrimidinediamine], the pIC50 (in assay [1] (setting [4]); in the assay with A549 (lung carcinoma) (setting [5])) was 5.00 to 6.00 in each case.
As to `CN1CCN(c2cccc(Nc3ncc(F)c(NC4C5C=CC(C5)C4C(N)=O)n3)c2)CC1` (racemic) [compound 231, Racemic-(2-exo,3-exo)-N4-(3-aminocarbonylbicyclo[2.2.1]hept-5-en-2-yl)-5-fluoro-N2-[3-(4-methylpiperazin-1-yl)]phenyl-2,4-pyrimidinediamine], the pIC50 (in assay [1] (setting [4]); in the assay with A549 (lung carcinoma) (setting [5])) was not below 7.00 each time.
As to `Cc1cc(Nc2ncc(F)c(NC3(C(=O)O)CCCC3)n2)ccc1N1CCN(C)CC1` [compound 246, N4-(1-Carboxycyclopent-1-yl)-5-fluoro-N2-[3-methyl-4-(4-methylpiperazin-1-yl)phenyl]-2,4-pyrimidinediamine], the pIC50 (in assay [1] (setting [4]); in the assay on A549 (lung carcinoma) (setting [5])) was less than 5.00 in each case.
`CN(C)CCN1CCc2cc(Nc3ncc(F)c(N[C@H]4[C@@H](C(N)=O)[C@@H]5C=C[C@H]4C5)n3)ccc21` [compound 186, (1R,2R,3S,4S)-N4-[3-Aminocarbonylbicyclo[2.2.1]hept-5-en-2-yl]-N2-[1-(2-dimethylaminoethyl)-2,3-dihydroindol-5-yl]-5-fluoro-2,4-pyrimidinediamine]: the pIC50 (in assay [1] (setting [2]); in the assay with A549 (lung carcinoma) (setting [3])) was not below 7.00 each time.
With `COCc1cc(Nc2ncc(F)c(N[C@H]3CCC[C@H]3C(N)=O)n2)ccc1N1CCN(C)CC1` (racemic) [compound 216, Racemic-cis-N4-(2-aminocarbonylcyclopent-1-yl)-5-fluoro-N2-[4-(4-methylpiperazin-1-yl)-3-methoxymethylenephenyl]-2,4-pyrimidinediamine], the pIC50 (in assay [1] (setting [4]); with A549 (lung carcinoma) (setting [5])) was 6.00 to 7.00 throughout.
On to `Cc1cc(Nc2ncc(F)c(N[C@@H]3CCC[C@H]3C(=O)O)n2)ccc1N1CCN(C)CC1` [compound 211, (1R,2R)-5-fluoro-N4-(2-hydroxycarbonylcyclopent-1-yl)-N2-[3-methyl-4-(4-methylpiperazino)phenyl]-2,4-pyrimidinediamine], for which the pIC50 (in assay [1] (setting [4]); in the assay with A549 (lung carcinoma) (setting [5])) was less than 5.00 in each case.
As to `NC(=O)[C@@H]1[C@H](Nc2nc(Nc3ccc(OC(F)(F)F)c(Cl)c3)ncc2F)[C@H]2C=C[C@@H]1C2` [compound 148, (1R,2R,3S,4S)-N4-(3-Aminocarbonylbicyclo[2.2.1]hept-5-en-2-yl)-N2-(3-chloro-4-trifluoromethoxyphenyl)-5-fluoro-2,4-pyrimidinediamine], the pIC50 (in assay [1] (setting [2]); in the assay with A549 (lung carcinoma) (setting [3])) was 5.00 to 6.00 in each case.
Take `CN1CCC(c2ccc(Nc3ncc(F)c(N[C@H]4[C@@H](C(N)=O)[C@@H]5C=C[C@H]4C5)n3)cc2)CC1` [compound 137, (1R,2R,3S,4S)-N4-(3-aminocarbonylbicyclo[2.2.1]hept-5-en-2-yl)-5-fluoro-N2-[4-(1-methylpiperidin-4-yl)phenyl]-2,4-pyrimidinediamine]: the pIC50 (in assay [1] (setting [2]); in the assay with A549 (lung carcinoma) (setting [3])) was not below 7.00 each time.
Take `Cc1cc(Nc2ncc(F)c(NC3(C(=O)NC4CC4)CCCC3)n2)ccc1N1CCN(C)CC1` [compound 247, N4-(1-Cyclopropylaminocarbonylcyclopent-1-yl)-5-fluoro-N2-[3-methyl-4-(4-methylpiperazin-1-yl)phenyl]-2,4-pyrimidinediamine]: the pIC50 (in assay [1] (setting [4]); with A549 (lung carcinoma) (setting [5])) was less than 5.00 each time.
Turning to `Cc1cc(Nc2ncc(F)c(NC3(C(=O)NC4CC4)CC=CC3)n2)ccc1N1CCN(C)CC1` [compound 244, N4-(1-Cyclopropylaminocarbonylcyclopent-3-en-1-yl)-5-fluoro-N2-[3-methyl-4-(4-methylpiperazin-1-yl)phenyl]-2,4-pyrimidinediamine], the pIC50 (in assay [1] (setting [4]); with A549 (lung carcinoma) (setting [5])) was less than 5.00 each time.
`Cc1cc(Nc2ncc(F)c(NC3C4C=CC(C4)C3C(=O)OC3C[C@@H](C)CC[C@@H]3C(C)C)n2)ccc1N1CCN(C)CC1` (mixture of isomers) [compound 135, Racemic (2-exo,3-exo)-5-Fluoro-N4-[3-(1R,2S,5R)-(−)-menthyloxycarbonylbicyclo[2.2.1]hept-5-en-2-yl]-N2-[3-methyl-4-(4-methylpiperazin-1-yl)phenyl]-2,4-pyrimidinediamine]: the pIC50 (in assay [1] (setting [2]); in the assay on A549 (lung carcinoma) (setting [3])) was 5.00 to 6.00 throughout.
With `Cc1cc(Nc2ncc(F)c(N[C@H]3CCC[C@H]3C(=O)NC3CC3)n2)ccc1N1CCN(C)CC1` (racemic) [compound 159, Racemic-cis-N4-[2-(N-cyclpropyl)aminocarbonylcyclopent-1-yl]-5-fluoro-N2-[4-(4-methylpiperazin-1-yl)-3-methylphenyl]-2,4-pyrimidinediamine], the pIC50 (in assay [1] (setting [2]); in the assay with A549 (lung carcinoma) (setting [3])) was 6.00 to 7.00 in each case.
As to `Cc1cc(Nc2ncc(F)c(NC3(C(N)=O)CC=CC3)n2)ccc1N1CCN(C)CC1` [compound 238, N4-(1-Aminocarbonylcyclopent-3-ene-1-yl)-5-fluoro-N2-[3-methyl-4-(4-methylpiperazin-1-yl)phenyl]-2,4-pyrimidinediamine], the pIC50 in assay [1] (setting [4]) was less than 5.00; in the assay with A549 (lung carcinoma) (setting [5]), 5.00 to 6.00.
For the compound `CNC(=O)C1C2C=CC(C2)C1Nc1nc(Nc2ccc3c(c2)CCN3CCN(C)C)ncc1F` (racemic) [compound 177, Racemic-(2-exo,3-exo)-N2-[1-(2-dimethylaminoethyl)-2,3-dihydroindol-5-yl]-5-fluoro-N4-[3-N-methylaminocarbonylbicyclo[2.2.1]hept-5-ene-2-yl]-2,4-pyrimidinediamine], the pIC50 was 6.00 to 7.00 in assay [1] (setting [2]) and not below 7.00 in the assay on A549 (lung carcinoma) (setting [3]).
Regarding `CNC(=O)c1cc(Nc2ncc(F)c(NC3C4C=CC(C4)C3C(N)=O)n2)ccc1N1CCN(C)CC1` (racemic) [compound 255, Racemic-(2-exo,3-exo)-N4-(3-aminocarbonylbicyclo[2.2.1]hept-5-en-2-yl)-5-fluoro-N2-[3-methylaminocarbonyl-4-(4-methylpiperazin-1-yl)phenyl]-2,4-pyrimidinediamine], the pIC50 (in assay [1] (setting [4]); in the assay with A549 (lung carcinoma) (setting [5])) was 6.00 to 7.00 each time.
